Results from patent US20190091187A1 (Orbus Therapeutics, Inc., priority 2016, published 2019).
Like-named read-outs stand apart in the source and are kept apart here.

Legend:
Big Blue Rat-2 cells = conditions: 9.1 at 0 mM, cited from earlier work
low-grade gliomas = conditions: adjuvant chemotherapy; recurrent tumors; driver mutations in RB and AKT-mTOR pathways; cited from earlier work
[1] = test system: newly diagnosed AG and GBM patients; experiment: Phase 3 study of eflornithine with PCV versus PCV, adverse events; type: in vivo, human; conditions: Eflornithine-PCV minus PCV, N = 500
Text: As used herein, the term “toxicity” refers to any one of the side effects referred to above in Table 2, regardless of the severity of the side effect or its possible effect on the course of treatment.

[2] = test system: AG and GBM patients treated at recurrence; conditions: 3.6 g/m^2 every 8 hours, N = 89, cited from earlier work
[3] = test system: biopsied skin actinic keratosis; conditions: topical, compared to placebo-treated skin, cited from earlier work
neuroblastoma cells = conditions: arrest of cell division between G1 and mitosis; cited from earlier work

## Cn1nnc2c(C(N)=O)ncn2c1=O [TMZ, temozolomide]
Big Blue Rat-2 cells; 0.5 mM TMZ
  lacI mutation frequency: 48.9
Big Blue Rat-2 cells; 1 mM TMZ
  lacI mutation frequency: 89.7
low-grade gliomas
  patients whose tumors followed an alternative evolutionary path to high-grade glioma with hypermutation: 6 of 10

## eflornithine
[1]; Toxicity Grade 1
  Anemia, Excess AEs due to Eflornithine: 12.5%
  Anorexia, Excess AEs due to Eflornithine: −1.5%
  Constipation, Excess AEs due to Eflornithine: −1.9%
  Diarrhea, Excess AEs due to Eflornithine: 25.4%
  Fatigue, Excess AEs due to Eflornithine: 4.7%
  Granulocytopenia, Excess AEs due to Eflornithine: 2.4%
  Headache, Excess AEs due to Eflornithine: −1.9%
  Hearing loss, Excess AEs due to Eflornithine: 0.0%
  Leukopenia, Excess AEs due to Eflornithine: −3.4%
  Nausea only, Excess AEs due to Eflornithine: 1.0%
  Pruritis and itching, Excess AEs due to Eflornithine: −0.7%
  Thrombocytopenia, Excess AEs due to Eflornithine: 4.6%
  Vomiting, Excess AEs due to Eflornithine: 5.2%
[1]; Toxicity Grade 2
  Anemia, Excess AEs due to Eflornithine: 15.6%
  Anorexia, Excess AEs due to Eflornithine: 2.5%
  Constipation, Excess AEs due to Eflornithine: −0.7%
  Diarrhea, Excess AEs due to Eflornithine: 17.4%
  Fatigue, Excess AEs due to Eflornithine: 6.9%
  Granulocytopenia, Excess AEs due to Eflornithine: 1.1%
  Headache, Excess AEs due to Eflornithine: 1.3%
  Hearing loss, Excess AEs due to Eflornithine: 1.2%
  Leukopenia, Excess AEs due to Eflornithine: 1.2%
  Nausea only, Excess AEs due to Eflornithine: 0.0%
  Pruritis and itching, Excess AEs due to Eflornithine: 0.9%
  Thrombocytopenia, Excess AEs due to Eflornithine: 10.5%
  Vomiting, Excess AEs due to Eflornithine: 1.1%
[1]; Toxicity Grade 3
  Anemia, Excess AEs due to Eflornithine: 4.5%
  Anorexia, Excess AEs due to Eflornithine: 1.2%
  Constipation, Excess AEs due to Eflornithine: 0.4%
  Diarrhea, Excess AEs due to Eflornithine: 6.0%
  Fatigue, Excess AEs due to Eflornithine: 0.8%
  Granulocytopenia, Excess AEs due to Eflornithine: −3.9%
  Headache, Excess AEs due to Eflornithine: 0.4%
  Hearing loss, Excess AEs due to Eflornithine: 0.8%
  Leukopenia, Excess AEs due to Eflornithine: 0.0%
  Nausea only, Excess AEs due to Eflornithine: 0.9%
  Pruritis and itching, Excess AEs due to Eflornithine: −0.3%
  Thrombocytopenia, Excess AEs due to Eflornithine: 3.5%
  Vomiting, Excess AEs due to Eflornithine: 4.5%
[1]; Toxicity Grade 4
  Anemia, Excess AEs due to Eflornithine: 2.0%
  Anorexia, Excess AEs due to Eflornithine: 0.0%
  Constipation, Excess AEs due to Eflornithine: 0.4%
  Diarrhea, Excess AEs due to Eflornithine: 0.8%
  Fatigue, Excess AEs due to Eflornithine: 0.0%
  Granulocytopenia, Excess AEs due to Eflornithine: 1.8%
  Headache, Excess AEs due to Eflornithine: 0.0%
  Hearing loss, Excess AEs due to Eflornithine: 0.0%
  Leukopenia, Excess AEs due to Eflornithine: 0.9%
  Nausea only, Excess AEs due to Eflornithine: 0.0%
  Pruritis and itching, Excess AEs due to Eflornithine: 0.0%
  Thrombocytopenia, Excess AEs due to Eflornithine: 2.1%
  Vomiting, Excess AEs due to Eflornithine: −1.2%
[2]; Toxicity Grade 1
  Ototoxicity, patients (%): (7.9) %
  Ototoxicity, patients n: 7
[2]; Toxicity Grade 2
  Ototoxicity, patients (%): (5.6) %
  Ototoxicity, patients n: 5
[2]; Toxicity Grade 3
  Ototoxicity, patients (%): (6.7) %
  Ototoxicity, patients n: 6
[3]; P=0.04
  reduced the percentage of p53-positive cells: 22%
[3]
  reduction of the frequency of p53 mutations: not the frequency of p53 mutations
Neuroblastoma cells
  effect on intracellular proteins p21 and p27kip-1: increase
